What was measured:
[1] = system: analgesic activity of morphine; assay: Tail Flick Test: increase in the analgesic effect of morphine; type: in vivo, rats
How it was run: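 Male non-fasted rats, 150-200 g; heat source (75 °C) on tail, latency to tail movement timed, 8 s cut-off. Measured before and 10, 20, 30, 45, 60, 90 min after analgesic dosing; percentage variation per animal, averaged over groups of five.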

[2] = system: activity of analgesic drugs; assay: Hot plate test: potentiation of analgesic drugs; type: in vivo, rats
Method: The method is that described by Eddy et al. (J. Pharmac. Exp. Ther. 107, 385 (1953)).
Groups of five male rats having a weight of about 150 g and which have not been fasting are used.
The animals are placed on a metal plate which is on the bottom of a transparent cylinder heated to 55°±1° C. by an azeotropic boiling mixture (1:1 acetone-ethyl formate). The time which passes between the moment at which the animal is placed on the hot plate and the moment at which it licks its feet or tries to jump out of the cylinder is defined as the reaction time. The control reaction time is measured 10 and 5 minutes before the administration of the drugs and 10, 20, 30, 45, 60, 90 minutes afterwards. The animals are left on the plate for a maximum period of 30 seconds.
The response to the administration of the product is considered positive if at least a doubling of the normal reaction time is seen. The results obtained are given in Table 2 which records the groups treated, the dose administered and the stay times on the plate expressed as the number of positive responses over the number treated.

[3] = system: guinea pig gall bladder contracted with CCK-8; assay: Anti-CCK activity on guinea pig gall bladders in vitro; type: biochemical; details: CCK-8 10 ng/ml, concentration antagonising 50% of contracting effect
How it was run: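 Longitudinal gall bladder strips in Krebs at 32° C, gassed with O2/CO2 95:5, were contracted with CCK-8 at 10 ng/ml and contractions recorded isometrically via force transducer. ED50 in mcg/ml is the compound concentration antagonising 50% of CCK contraction, derived by regression over at least three experiments.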

[4] = system: tolerance induced by morphine; assay: Antagonism to the development of tolerance to repeated administration of morphine HCl (tail flick); type: in vivo, rats
How it was run: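 Male rats, about 200-250, in groups of six, dosed every 24 h with 3 mg/kg morphine HCl i.p. plus 3 mg/kg i.p. test compound; saline-only and morphine-only groups run alongside. Pain threshold measured by tail flick at […], 30', 45' and 60' after each treatment.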

endogenous opiates = assay: Tail Flick Test after transcutaneous shock: analgesic activity of endogenous opiates; type: in vivo, rats; details: for Average latency, 5': 5' after electric shock; for Average latency, 10': 10' after electric shock; for Average latency, 15': 15' after electric shock
Method: Influence of several of the compounds of the invention on the analgesic activity of endogenous opiates released under transcutaneous shock in rats measured by the Tail Flick Test
The method is that described by Lewis et al. (J. Neurosc. 1, 358 (1981). Male rats having a weight of about 200 g, which have not been fasting, are used.
The animals are stressed by the application to the front leg of a 60 Hz-2.5 mA current in pulses of a duration of one second every five seconds for 20 minutes.
This stress regime causes the release of endogenous opiates.

[5] = oxyphenylbutazone 50 + C. 33 5 mg/kg i.p.
[6] = oxyphenylbutazone 50 + C. 33 10 mg/kg i.p.
[7] = oxyphenylbutazone 50 + C. 33 20 mg/kg i.p.
[8] = days 0-7, 3 mg/kg + morphine (row Morphine: alone)

SMILES: O=C(N[C@@H](Cc1c[nH]c2ccccc12)C(=O)O)OC(c1ccccc1)c1ccccc1 [Compound 33]
- percentage variation in the latency of the pain sensation, 10' ([1]; 10', compound 10 mg/kg i.p. + morphine 2 mg/kg (row Morphine: alone), ± S.E.): 100.0 ± 0.0%
- percentage variation in the latency of the pain sensation, 20' ([1]; 20', compound 10 mg/kg i.p. + morphine 2 mg/kg (row Morphine: alone), ± S.E.): 87.6 ± 12.4%
- percentage variation in the latency of the pain sensation, 45' ([1]; 45', compound 10 mg/kg i.p. + morphine 2 mg/kg (row Morphine: alone), ± S.E.): 97.0 ± 3.0%
- percentage variation in the latency of the pain sensation, 60' ([1]; 60', compound 10 mg/kg i.p. + morphine 2 mg/kg (row Morphine: alone), ± S.E.): 65.7 ± 21.4%
- percentage variation in the latency of the pain sensation, 90' ([1]; 90', compound 10 mg/kg i.p. + morphine 2 mg/kg (row Morphine: alone), ± S.E.): 58.1 ± 21.7%
- M(10'-90') average percentage variation ([1]; mean 10'-90', compound 10 mg/kg i.p. + morphine 2 mg/kg (row Morphine: alone)): 82.9%
- Potency ratio relative to morphine alone ([1]; rat, in vivo): 2.78
- percentage variation in the latency of the pain sensation, 30' ([1]; rat, in vivo): 89.2 ± 10.8
- Positive Total X/25 [2, 5]: 17
- positive responses over the number treated, 10' [2, 5]: 3/5
- positive responses over the number treated, 20' [2, 5]: 3/5
- positive responses over the number treated, 30' [2, 5]: 4/5
- positive responses over the number treated, 45' [2, 5]: 4/5
- positive responses over the number treated, 60' [2, 5]: 3/5
- Positive Total X/25 [2, 6]: 21
- positive responses over the number treated, 10' [2, 6]: 3/5
- positive responses over the number treated, 20' [2, 6]: 5/5
- positive responses over the number treated, 30' [2, 6]: 5/5
- positive responses over the number treated, 45' [2, 6]: 5/5
- positive responses over the number treated, 60' [2, 6]: 3/5
- Positive Total X/25 [2, 7]: 22
- positive responses over the number treated, 10' [2, 7]: 4/5
- positive responses over the number treated, 20' [2, 7]: 5/5
- positive responses over the number treated, 30' [2, 7]: 5/5
- positive responses over the number treated, 45' [2, 7]: 4/5
- positive responses over the number treated, 60' [2, 7]: 4/5
- Anti CCK-8 activity, ED50 [3]: 76.3 µg/mL
- percentage variation in the latency time, day 0 ([4]; day 0, 3 mg/kg i.p. + morphine HCl 3 mg/kg i.p. (row Morphine: alone)): 50.12%
- percentage variation in the latency time, day 1 ([4]; day 1, 3 mg/kg i.p. + morphine HCl 3 mg/kg i.p. (row Morphine: alone)): 67.02%
- percentage variation in the latency time, day 2 ([4]; day 2, 3 mg/kg i.p. + morphine HCl 3 mg/kg i.p. (row Morphine: alone)): 51.47%
- percentage variation in the latency time, day 3 ([4]; day 3, 3 mg/kg i.p. + morphine HCl 3 mg/kg i.p. (row Morphine: alone)): 34.92%
- percentage variation in the latency time, day 4 ([4]; day 4, 3 mg/kg i.p. + morphine HCl 3 mg/kg i.p. (row Morphine: alone)): 67.3%
- percentage variation in the latency time, day 5 ([4]; day 5, 3 mg/kg i.p. + morphine HCl 3 mg/kg i.p. (row Morphine: alone)): 61.08%
- percentage variation in the latency time, day 6 ([4]; day 6, 3 mg/kg i.p. + morphine HCl 3 mg/kg i.p. (row Morphine: alone)): 20.02%
- percentage variation in the latency time, day 7 ([4]; day 7, 3 mg/kg i.p. + morphine HCl 3 mg/kg i.p. (row Morphine: alone)): 10.33%
- Area subtended (1) [4, 8]: 382.1 Effect-Day
- regression line % Effect versus Day [4, 8]: % Effect = - 5.38 Day + 64.12
- Area 1 / Area Morphine ([4]; rat, in vivo, 3 mg/kg): 2.72
- Average latency, 5' (endogenous opiates; 0.5 mg/kg i.v. + stress): 6.68 ± 0.53 s
- Average latency, 5' (endogenous opiates; 2 mg/kg i.v. + stress): 9.92 ± 0.92 s
- Average latency, 10' (endogenous opiates; 0.5 mg/kg i.v. + stress): 6.58 ± 0.46 sec.
- Average latency, 10' (endogenous opiates; 2 mg/kg i.v. + stress): 8.1 ± 1.0 sec.
- Average latency, 15' (endogenous opiates; 0.5 mg/kg i.v. + stress): 5.3 ± 0.56 s
- Average latency, 15' (endogenous opiates; 2 mg/kg i.v. + stress): 6.51 ± 0.48 s
